From patent US20220168394A1, “METHODS OF INDUCING OR RESTORING IMMUNE TOLERANCE” (INSERM (Institut National de la Santé et de la Recherche …, priority 2019, published 2022)
Like-named read-outs stand apart in the source and are kept apart here.

Experiments:
[1] = tested on: Scurfy mice; experiment: Survival of Scurfy mice; assay type: in vivo
Description: (§1) Scurfy phenotype was obtained by backcrossing on B6. 129S7-Rag1tm1Mom/J background, allowing generation of homozygous XSf/XSfRag1−/− female. Crossing of these females with WT C57BL/6J mice result in the birth only of diseased XSf/Y.Rag1−/+male.
(§2) First, scurfy mice were treated with an immunosuppressor: Temsirolimus (LC laboratories, Woburn, USA) was injected S.C at the dose of 2 mg/kg at day 8 and day 10 after birth. This treatment was continued twice a week in some experiment. Anti-CD3 Fab'2 (clone 145-2C11, BioXCell, West Lebanon, USA) was injected S.C at 20 μg/day during 5 days at day 8 after birth. Cyclophosphamide (European Pharmacopoeia (EP) Reference Standard, Merck KGaA, Darmstadt, Germany) was injected I.P. at 50, 100, or 150 mg/kg 10 days after birth. At day 10 or day 14, CD4^+CD25^+CD45.1^+cells (containing putative Tregs) or engineered CD4^+T cells (Foxp3.LNGFR or LNGFR) from Scurfy mice were injected at 0.5×10^6, 0.75×10^6 or 1×10^6 of cells respectively via I.P injections. […] In indicated experiments, together with cells, Proleukin (human IL-2, aldesleukine, Novartis) was injected at 1.000 UI/g via I.P and during 5 days then once a week.
Values are represented as means ±SD, unless stated otherwise. GraphPad Prism 6.0 was used for all statistical analyses. P value was calculated with a confidence interval of 95% to indicate the statistical significance between groups. Statistical test included non-parametric Mann-Whitney test, Fischer exact test or two ways ANOVA depending on the dataset. A P value <0.05 was considered statistically significant. Statistically significant differences between groups are noted in figures with asterisks (*p<0.05, **p<0.01, ***p<0.001, ****p<0.0001). Correlations were performed with a non-parametric Spearman correlation. Survival was analyzed with Log-rank test (Mantel-Cox).
(§3) As shown in FIGS. 1-7, the inventors compared 7 different experimental protocols to identify the one allowing to test the efficacy of Treg to treat Scurfy autoimmune syndrome. Tregs were sorted on the basis of CD4 and CD25 expression from CD45.1 congenic B6 mice and injected at a dose of 5×10^5 intra-peritoneally at day 10 or 14. The criteria was the scurfy score measured every 3 to 4 days from birth and when signs of efficiency evidenced improved scores for mice transplanted with Tregs, survival was followed. Three drugs were tested as conditioning regimens: Temsirolimus, subcutaneously injected at a dose of 2 mg/kg daily from day 4 to day 28 or from day 4 to day 9 (post-birth), anti-CD3 Fab'2, subcutaneously injected at a dose of 20 micrograms/recipient, daily from day 8 to day 12, Cyclophosphamide at 3 different doses (50, 100 and 150 mg/kg) injected at day 10.

[2] = tested on: Scurfy mice
Description: as §1, §2, §3

[3] = tested on: Scurfy mice; remark: listed apart in the source
Description: as §2, §3

[4] = tested on: CD4+ T cells; experiment: T cell depletion after immunosuppressive drug; design: species or system mice; conditions: mouse, in vivo
Description: as §2

[5] = first series, Cy 50 mg/kg conditioned Scurfy mice

Compound | mean survival [1, 5] | effect on auto-immunity in Scurfy settings ([2]; low dose IL-2, 1.000 UI/g) | delay of the death of scurfy mice ([1]; cyclophosphamide at all doses (50, 100 and 150 mg/kg) at day 10, no cells) | survival following Cy injection ([1]; increased from 30 (untreated mice) to 90 days, p=0.01) | mean survival ([1]; second series, 90 days of follow-up) | general toxicity ([3]; 50 mg/kg at day 10) | general toxicity revealed by the health status of the mice ([3]; 100 and 150 mg/kg at day 10) | toxicity observed ([3]; Cy 50, 100 or 150 at day 10, correlated with dose) | toxicities in young animals ([3]; even low dose of Cy) | scurfy score ([2]; mouse, in vivo) | CD4 T cells nadir (time after injection) [4] | T cells depletion across doses [4] | cell count normalized (time after injection) [4] | life expectancy ([1]; Temsirolimus twice a week starting at day 8) | scurfy score ([2]; Temsirolimus twice a week starting at disease onset (day 8), drug alone) | improvement of Scurfy score after the infusion of Tregs ([2]; drug used as conditioning regimen, 5×10^5 Tregs i.p. at day 10 or 14)
IL-2: Proleukin (human IL-2, aldesleukine, Novartis) | 51 days | did not worsen auto-immunity | – | – | – | – | – | – | – | – | – | – | – | – | – | –
O.O=P1(N(CCCl)CCCl)NCCCO1 (centres unmarked) [Cyclophosphamide, 2-[bis(2-chloroethyl)amino]-tetrahydro-2H-1,3,2-oxazaphosphorine-2-oxide monohydrate] | 39 days | – | more than 60 days | 90 days | 47 days | absent | general toxicity | growth retardation and a transient alopecia | alopecia and growth retardation | more stable scurfy score | 4 days | not different with the three doses | 10 days | – | – | –
CO[C@H]1C[C@@H]2CC[C@@H](C)[C@@](O)(O2)C(=O)C(=O)N2CCCC[C@H]2C(=O)O[C@H]([C@H](C)C[C@@H]2CC[C@@H](OC(=O)C(C)(CO)CO)[C@H](OC)C2)CC(=O)[C@H](C)/C=C(\C)[C@@H](O)[C@@H](OC)C(=O)[C@H](C)C[C@H](C)/C=C/C=C/C=C/1C [Temsirolimus] | – | – | – | – | – | – | – | – | – | – | – | – | – | doubling of life expectancy | reduction of Scurfy score | did not allow to reveal any improvement
